Laboratory results taken from ChEMBL document CHEMBL3861945 (Medchemcomm, 2016).

Legend:
[1] = Cytotoxicity against human PBMC assessed as decrease in cell viability after 72 hrs by MTT assay; type: toxicity, cell-based; conditions: PBMC (peripheral blood mononuclear cells)
[2] = Cytotoxicity against human SF295 cells assessed as decrease in cell viability after 72 hrs by MTT assay; type: functional, cell-based; conditions: SF-295, 72 h
[3] = Cytotoxicity against human HCT116 cells assessed as decrease in cell viability after 72 hrs by MTT assay; type: functional, cell-based; conditions: HCT-116, 72 h
[4] = Cytotoxicity against human HL60 cells assessed as decrease in cell viability after 72 hrs by MTT assay; type: functional, cell-based; conditions: HL-60, 72 h
[5] = Cytotoxicity against human MDA-MB-435 cells assessed as decrease in cell viability after 72 hrs by MTT assay; type: functional, cell-based; conditions: MDA-MB-435, 72 h
Trypanosoma cruzi [6] = assay: Trypanocidal activity against bloodstream trypomastigote stage of Trypanosoma cruzi Y after 24 hrs by Neubauer chamber method; type: functional
[7] = Cytotoxicity against human PC3 cells assessed as decrease in cell viability after 72 hrs by MTT assay; type: functional, cell-based; conditions: PC-3, 72 h
PC-3 = assay: Selectivity index, ratio of IC50 for human PBMC to IC50 for human PC3 cells
Trypanosoma cruzi [8] = assay: Trypanocidal activity against bloodstream form of Trypanosoma cruzi after 24 hrs; type: functional
HL-60 = assay: Selectivity index, ratio of IC50 for human PBMC to IC50 for human HL60 cells
SF-295 = assay: Selectivity index, ratio of IC50 for human PBMC to IC50 for human SF295 cells
[9] = Selectivity index, ratio of IC50 for human PBMC to IC50 for human MDA-MB-435 cells
HCT-116 = assay: Selectivity index, ratio of IC50 for human PBMC to IC50 for human HCT116 cells

Row | SMILES | IC50 at 72 h [1] [µM] | IC50 [2] [µM] | IC50 [3] [µM] | IC50 [4] [µM] | IC50 [5] [µM] | IC50 (Trypanosoma cruzi [6]) [µM] | IC50 [7] [µM] | Ratio IC50 (PC-3) | IC50 (Trypanosoma cruzi [8]) [µM] | Ratio IC50 (HL-60) | Ratio IC50 (SF-295) | Ratio IC50 [9] | Ratio IC50 (HCT-116)
1 | CC1(C)CC(n2nnc(-c3ccccc3)c2I)C2=C(O1)C(=O)c1ccccc1C2=O (configuration not stated) | > 9.78 | > 9.78 | > 9.78 | > 9.78 | > 9.78 | > 1000 | > 9.78 |  |  |  |  |  | 
2 | O=C1C(=O)c2ccccc2C2=C1CC(Cn1cc(-c3ccccc3)nn1)O2 (configuration not stated) | 3.24 | 3.24 | 2.4 | 3.55 | 3.08 | > 1000 | 2.07 |  |  |  |  |  | 
3 | CC1(C)OC2=C(C(=O)C(=O)c3ccccc32)C1n1nncc1-c1ccccc1 (configuration not stated) | 2.02 | 2.37 | 1.37 | 1.48 | 1.75 | 113 | 1.34 | 1.5 |  |  |  |  | 
4 | CC1(C)OC2=C(C(=O)C(=O)c3ccccc32)[C@H](n2nnc(-c3ccccc3)c2I)[C@H]1Br | > 8.48 | > 8.48 | > 8.48 | > 8.48 | > 8.48 | > 1000 | > 8.48 |  |  |  |  |  | 
5 | O=C1C(=O)c2ccccc2C2=C1CC(Cn1nnc(-c3ccccc3)c1I)O2 (configuration not stated) | 3.68 | 3.68 | 4.16 | 2.38 | 5.65 | > 1000 | 2.17 |  |  |  |  |  | 
6 | CCCCCCc1cn(CC2CC3=C(O2)c2ccccc2C(=O)C3=O)nn1 (configuration not stated) | 5.99 | 2.7 | 2.13 | 2.02 | 1.91 |  | 3.42 |  | 86.7 |  |  |  | 
7 | CC1(C)OC2=C(C(=O)c3ccccc3C2=O)C1n1nnc(-c2ccccc2)c1I (configuration not stated) | 7.86 | 4.58 | 5.17 | 4.22 | 5.69 | > 1000 | 5.73 |  |  |  |  |  | 
8 | CC1(C)CCC2=C(O1)c1ccccc1C(=O)C2=O [LAPACHONE] |  |  |  |  |  | 392 |  |  |  |  |  |  | 
9 | O=C1C2=C(OC(Cn3nnc(-c4ccccc4)c3I)C2)C(=O)c2ccccc21 (configuration not stated) | > 10.3 | > 10.3 | 6.04 | 5.4 | > 10.3 | > 1000 | > 10.3 |  |  |  |  |  | 
10 | CC1(C)CC(n2cc(-c3ccccc3)nn2)C2=C(O1)C(=O)c1ccccc1C2=O (configuration not stated) | > 13 | > 13 | 9.63 | 7.94 | > 13 | > 1000 | > 13 |  |  |  |  |  | 
11 | O=C1C2=C(OC(Cn3cc(-c4ccccc4)nn3)C2)C(=O)c2ccccc21 (configuration not stated) | > 14 | > 14 | 8.7 | 7.95 | > 14 | > 1000 | > 14 |  |  |  |  |  | 
12 | O=C1C(=O)c2ccccc2C2=C1CC(Cn1cc(C3(O)CCCCC3)nn1)O2 (configuration not stated) | > 13.2 | 11.1 | 12.7 | 11 | 10.2 |  | 12.4 |  | 89.5 |  |  |  | 
13 | O=C1C2=C(OC(Cn3nncc3-c3ccccc3)C2)C(=O)c2ccccc21 (configuration not stated) | > 14 | > 14 | 3.36 | 3.02 | > 14 | > 1000 | > 14 |  |  |  |  |  | 
14 | CC1(C)CC(n2nncc2-c2ccccc2)C2=C(O1)C(=O)c1ccccc1C2=O (configuration not stated) | > 13 | > 13 | > 13 | > 13 | > 13 | > 1000 | > 13 |  |  |  |  |  | 
15 | CC1(C)OC2=C(C(=O)C(=O)c3ccccc32)[C@H](n2nncc2-c2ccccc2)[C@H]1Br | 1.23 | 1.59 | 0.47 | 0.66 | 0.77 | 125 | 0.41 | 0.8 - 3 |  | 0.8 - 3 | 0.8 - 3 | 0.8 - 3 | 0.8 - 3
16 | O=C1C(=O)c2ccccc2C2=C1CC(Cn1cc(C3CCCCC3)nn1)O2 (configuration not stated) | 5.17 | 1.89 | 2.17 | 2.25 | 1.21 |  | 2.55 |  | 214 |  |  |  | 
17 | O=C1C(=O)c2ccccc2C2=C1CC(Cn1nnc(-c3ccccc3)c1-c1ccccc1)O2 (configuration not stated) | 2.16 | 1.43 | 1.68 | 1.15 | 1.17 | > 1000 | 1.29 |  |  |  |  |  | 
18 | CC1(C)OC2=C(C(=O)c3ccccc3C2=O)C1n1nncc1-c1ccccc1 (configuration not stated) | 7.57 | 2.8 | 2.5 | 2.55 | 3.71 | > 1000 | 3.07 |  |  |  |  |  | 
19 | O=C1C(=O)c2ccccc2C2=C1CC(Cn1cc(C3=CCCCC3)nn1)O2 (configuration not stated) | 5.31 | 2.32 | 3.98 | 3.29 | 2.68 |  | 4.37 |  | 55.3 |  |  |  | 
20 | CC1(C)OC2=C(C(=O)C(=O)c3ccccc32)C1n1nnc(-c2ccccc2)c1I (configuration not stated) | 4.08 | 2.83 | 3.35 | 2.59 | 3.05 | > 1000 | 2.77 |  |  |  |  |  | 
21 | O=C1C(=O)c2ccccc2C2=C1CC(Cn1nncc1-c1ccccc1)O2 (configuration not stated) | 5.71 | 7.78 | 4.84 | 4.11 | 6.13 | > 1000 | 6.91 |  |  |  |  |  | 
